# Laboratory results taken from patent US8022103B2, “Ester prodrugs of prostratin and related phorbol compounds” (Salvia Sciences, Inc., priority 2005, dated 2011).
# Where two headings read alike, the source gives them in different places.
# What was measured:
# Assay type in all cases: cell-based
# [1] = test system: HIV-1Ba-L; assay: PBMC antiviral assay, HIV-1Ba-L; details: human PBMCs
# Protocol: Compounds SA-101A and SA-101B were tested for antiviral activity against HIV-1 in peripheral blood mononuclear cells (PBMC) acutely infected with the HIV-1 isolates. PBMCs were derived from normal HIV-1 negative donors, and cultured under conditions which promote cell survival and HIV replication. Fresh human blood was obtained commercially from Biological Specialty Corporation (Colmar, Pa.). The low passage clinical isolates HIV-1Ba-L, HIVIIIB, and SIVmac251 were from the NIAID AIDS Research and Reference Reagent Program. Immediately before use, pre-titered aliquot of the viruses were removed from storage in a freezer (−80° C.) and thawed rapidly to room temperature in a biological safety cabinet. Phytohemagglutinin (PHA-P) was obtained from Sigma (St. Louis, Mo.) and recombinant IL-2 was obtained from R&D Systems Inc. (Minneapolis, Minn.). Antiviral activity was tested from a high-test concentration of 100 μM or 100 μg/ml with nine ½-log serial dilutions of the compound to derive applicable IC50 (concentration inhibition virus replication by 50%), IC90 (concentration inhibition virus replication by 90%), TC50 (concentration decreasing cell viability by 50%) and TI (therapeutic index: TC50/IC50) values.
# Preparation of PMBC. Fresh Human PBMCs, Seronegative for HIV and HBV, were isolated from screened donors (Interstate Blood Bank, Inc. Memphis, Tenn.). Cells were pelleted/washed 2-3 times by low speed centrifugation and resuspensded in PBS to remove contaminating platelets. The leukophoresed blood was then diluted 1:1 with Dulbecco's Phosphate Buffered Saline (DPBS) and layered over 14 mL of Lymphocyte Separation Medium (LSM; Cellgro® by Mediatech, Inc.; density 1.078+/−0.002 g/ml; Cat. # 85-072-CL) in a 50 mL centrifuge tube and then centrifuged for 30 minutes at 600×g. Banded PBMCs were gently aspirated from the resulting interface and subsequently washed 2× with PBS by low speed centrifugation. After the final wash, cells were enumerated by trypan blue exclusion and re-suspended at 1×10^7 cells/mL in RPMI 1640 supplemented with 15% Fetal Bovine Serum (FBS), and 2 mM L-glutamine, 4 μg/mL Phytohemagglutinin (PHA-P, Sigma). The cells were allowed to incubate for 48-72 hours at 37° C. After incubation, PBMCs were centrifuged and re-suspended in RPMI 1640 with 15% FBS, 2 mM L-glutamine, 100 U/mL penicillin, 100 μg/mL streptomycin, 10 μg/mL gentamycin, and 20 U/mL recombinant human IL-2 (R&D Systems, Inc). […]
# PMBC assay. […] Pooling (mixing) of mononuclear cells from more than one donor is used to minimize the variability observed between individual donors, which results from quantitative and qualitative differences in HIV infection and overall response to the PHA and IL-2 of primary lymphocyte populations. […]
# [2] = test system: HCV RNA replicon; assay: HCV RNA replicon luciferase assay
# Protocol: Compounds SA-101A and SA-101B were evaluated for their effect on HCV RNA replicons using an in vitro HCV virus replication system.
# Compound preparation. Compounds were prepared as a powder (˜1 mg) and solubilized in DMSO. IFNα was used as a positive antiviral control.
# HCV RNA replicon system. The assay for HCV replication employed cell line ET (luc-ubi-neo/ET), which is a human Huh7 hepatoma cell line that contains an HCV RNA replicon with a stable luciferase (Luc) reporter and three cell culture-adaptive mutations (Pietschmann et al., 2002, J. Virol. 76:4008-4021). […]
# Luciferase assay. […] Compound IC50 and IC90 values (antiviral activity) are derived from plots of HCV RNA levels assessed as HCV RNA replicon-derived Luc activity versus drug concentration using Steady-Glo assay reagent (Promega), with Luc luminescence read on a 1450 Microbeta liquid scintillation and luminescence counter. Compound TC50 and TC90 values (cytotoxicity) are calculated from plots of cell number vs. drug concentration using data from the CytoTox-ONE cell proliferation assay (Promega); with fluorescence read using an Analyst HT fluorometer. […] Compound selectivity indices (SI=TC/IC) SI50 and SI90 values are calculated from spreadsheets.
# [3] = test system: cell line ET (luc-ubi-neo/ET), human Huh7 hepatoma; assay: CytoTox-ONE cytotoxicity in ET (luc-ubi-neo/ET) Huh7 cells
# Protocol: Luciferase assay. The ET cell line is grown in Dulbecco's modified essential media (DMEM), 10% fetal bovine serum (FBS), 1% penicillin-streptomycin (pen-strep), 1% glutamine, […] G418 in a 5% CO2 incubator at 37° C. All cell culture reagents are from Gibco Life Technologies. Cells are trypsinized (1% trypsin:EDTA) and plated out at 5×10^3 cells/well in white 96-well assay plates (Costar) dedicated to cell number (cytotoxicity) or antiviral activity (Luc) assessments. Drugs are added at five half-log concentrations each and the assay is run in DMEM, 5% FBS, 1% pen-strep, 1% glutamine. Human interferon alpha-2b (PBL Biolabs, New Brunswick, N.J.) is included in each run as a positive control compound. […] Compound IC50 and IC90 values (antiviral activity) are derived from plots of HCV RNA levels assessed as HCV RNA replicon-derived Luc activity versus drug concentration using Steady-Glo assay reagent (Promega), with Luc luminescence read on a 1450 Microbeta liquid scintillation and luminescence counter. Compound TC50 and TC90 values (cytotoxicity) are calculated from plots of cell number vs. drug concentration using data from the CytoTox-ONE cell proliferation assay (Promega); with fluorescence read using an Analyst HT fluorometer. […] Compound selectivity indices (SI=TC/IC) SI50 and SI90 values are calculated from spreadsheets.
SMILES,"IC50 ([1]; Human immunodeficiency virus 1, PBMC, read-out: IC50) [µg/mL]","IC90 ([1]; Human immunodeficiency virus 1, PBMC, read-out: IC90) [µg/mL]",Inhibition of HCV RNA replicon associated luciferase activity ([2]; lowest concentrations employed in the assay),Cytotoxicity [3],IC50 ([1]; 40% Human AB serum) [µg/mL],IC90 ([1]; 40% Human AB serum) [µg/mL],"EC50 (HCV RNA replicon) ([2]; ET cell line, luciferase, 72 hr)"
"CC(=O)O[C@@]12C[C@@H](C)[C@@]3(O)[C@@H](C=C(CO)C[C@]4(O)C(=O)C(C)=C[C@@H]34)[C@@H]1C2(C)C [SA-101A, 12-deoxyphorbol 13-acetate]",0.05,0.39,greater than 50%,did not appear to be active or cytotoxic,,,
"CC(=O)OC12CC(C)C3(O)C(C=C(COC(=O)CCC(=O)O)CC4(O)C(=O)C(C)=CC43)C1C2(C)C (centres unmarked) [SA-101B, Prostratin Succinate]",,,,did not display any appreciable cytotoxicity,0.0007,>1.00,EC50 was not reached
